Assay results from article PMC11249646, “Small-Molecule Disruptors of the Interaction between Calcium- and Integrin-Binding Protein 1 and Integrin αIIbβ3 as Novel Antiplatelet Agents” (ACS Pharmacology & Translational Science, 2024).
Read-outs that look alike come from different tables or passages of the source.

Molecular target: T1, CIB1 and αIIb interaction (CIB1-GST : F-αIIb peptide) (Homo sapiens, UniProt Q99828)
T1 construct: made in house; host or cells: BL-21 plus RIL cells (E. coli)
T1 sequence (Q99828 1-191): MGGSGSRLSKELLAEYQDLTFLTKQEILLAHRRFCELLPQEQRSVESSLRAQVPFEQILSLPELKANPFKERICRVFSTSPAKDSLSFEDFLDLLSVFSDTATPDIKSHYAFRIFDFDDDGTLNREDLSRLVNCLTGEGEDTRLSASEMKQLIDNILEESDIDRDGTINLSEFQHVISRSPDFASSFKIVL
Assay: FP assay, 1536-well qHTS format (primary and confirmatory screen)
Type: binding
Conditions: for Efficacy (%): negative = inhibition; for IC50: read-out: IC50; for Curve Class: negative sign = inhibitory curve

[1] = qHTS primary screen hits, Table S2
[2] = qHTS primary screen hits, Table S2, several classes where COUNT > 1
[3] = qHTS primary screen of LOPAC/NPACT libraries

SMILES: CC(=O)NC(c1cccs1)c1cc(Br)c2cccnc2c1O (centres unmarked) [NCGC00188370-02]
- Efficacy (%) (qHTS FP screen hits, Table S2): -40%
- IC50 (qHTS FP screen hits, Table S2): 45.5 µM

SMILES: O=C(Nc1ccc2ccccc2c1)Nc1nnc(-c2ccccn2)s1.O=C(O)C(F)(F)F [NCGC00188528-01]
- Efficacy (%) [1]: -30%
- Curve Class [2]: -2.4
- IC50 [1]: 56.2 µM

SMILES: Cc1nc(CNc2ncnc3ccc(-c4ccc(CO)o4)cc23)cs1.O=C(O)C(F)(F)F [NCGC00188652-01]
- Efficacy (%) [1]: -35%
- Curve Class [2]: -2.4
- IC50 [1]: 56.2 µM

SMILES: Cc1ccc(CNc2ncnc3ccc(-c4ccc(CO)o4)cc23)o1.O=C(O)C(F)(F)F [NCGC00188654-01]
- Efficacy (%) [1]: -45%
- Curve Class [1]: -2.2
- IC50 [1]: 50.1 µM

SMILES: O=C(O)C(F)(F)F.OCc1ccc(-c2ccc3ncnc(NCCc4c[nH]cn4)c3c2)o1 [NCGC00188669-01]
- Efficacy (%) [1]: -40%
- Curve Class [2]: -2.4
- IC50 [1]: 44.7 µM

SMILES: O=C(O)C(F)(F)F.OCc1ccc(-c2ccc3ncnc(NCc4ncc[nH]4)c3c2)o1 [NCGC00188670-01]
- Efficacy (%) [1]: -33%
- Curve Class [2]: -2.4
- IC50 [1]: 56.2 µM

SMILES: CCc1nnc(Nc2ncnc3scc(-c4cccc(S(C)(=O)=O)c4)c23)s1.O=C(O)C(F)(F)F [NCGC00188733-01]
- Efficacy (%) [1]: -31%
- Curve Class [2]: -2.2
- IC50 [1]: 50.1 µM

SMILES: Cl.O=c1cc(CN2CCOCC2)occ1OCCCCCSc1ccnc2cc(C(F)(F)F)ccc12 [NCGC00188866-05]
- Efficacy (%) [3]: -26%
- Curve Class [3]: -2.4
- IC50 [3]: 39.8 µM

SMILES: CCC(=O)NC(c1cccs1)c1cc(Cl)c2cccnc2c1O (centres unmarked) [NCGC00188867-01]
- Efficacy (%) [1]: -29%
- Curve Class [2]: -2.4
- IC50 [1]: 44.7 µM

SMILES: Cc1ccc(CNc2ncnc3ccc(-c4ccc([C@@H](C)O)o4)cc23)o1 [NCGC00189252-01]
- Efficacy (%) (qHTS FP screen hits, Table S2): -27%
- IC50 (qHTS FP screen hits, Table S2): 12.6 µM

SMILES: O=C(O)C(F)(F)F.O=C(O)c1ccc(-c2ccc3ncnc(NCc4cccs4)c3c2)o1 [NCGC00189277-01]
- Efficacy (%) [1]: -25%
- Curve Class [2]: -2.4
- IC50 [1]: 89.1 µM

SMILES: Cc1ccc(N[S+](=O)([O-])c2cc3c(cc2N[C@@H](C)CO)NC(=O)CC3)cc1N[C@@H](C)CO [NCGC00189369-01]
- Efficacy (%) [1]: -29%
- Curve Class [2]: -2.4
- IC50 [1]: 70.8 µM

SMILES: O=C(Nc1ccccc1)c1ccccc1NC(=O)C1CCCCC1 [NCGC00189487-01]
- Efficacy (%) [1]: -27%
- Curve Class [2]: -2.4
- IC50 [1]: 56.2 µM

SMILES: COc1ccc(NC(=O)c2cccs2)cn1.O=C(O)C(F)(F)F [NCGC00229661-01]
- Efficacy (%) [1]: -41%
- Curve Class [2]: -2.2
- IC50 [1]: 50.1 µM

SMILES: O=C1CCCC2=C1C(c1n[nH]cc1Br)N=C(Nc1nc3ccccc3o1)N2 (centres unmarked) [NCGC00229723-01]
- Efficacy (%) [1]: -18%
- Curve Class [1]: -2.4
- IC50 [1]: 50.1 µM

SMILES: Cc1cc(C2N=C(Nc3nc4ccccc4o3)NC3=C2C(=O)CCC3)n[nH]1.O=C(O)C(F)(F)F (centres unmarked) [NCGC00229726-01]
- Efficacy (%) [1]: -26%
- Curve Class [2]: -2.4
- IC50 [1]: 56.2 µM

SMILES: CC1=C(C(=O)N(C)C)C(c2ccccc2Br)N=C(Nc2nc3ccccc3o2)N1.O=C(O)C(F)(F)F (centres unmarked) [NCGC00229733-01]
- Efficacy (%) [1]: -27%
- Curve Class [1]: -2.4
- IC50 [1]: 56.2 µM

SMILES: CN1CCN(c2ccc(NC(=O)CN(C)Cc3c(O)ccc4ccccc34)cc2)CC1.O=C(O)C(F)(F)F [NCGC00229739-01]
- Efficacy (%) [1]: -49%
- Curve Class [2]: -3
- IC50 [1]: 89.1 µM

SMILES: CC(C)(C)CNc1ncnc2ccc(-c3ccc(CO)o3)cc12.O=C(O)C(F)(F)F [NCGC00238375-01]
- Efficacy (%) [1]: -42%
- Curve Class [2]: -2.2
- IC50 [1]: 50.1 µM

SMILES: O=C(O)C(F)(F)F.OCc1ccc(-c2ccc3ncnc(N4CCOCC4)c3c2)o1 [NCGC00238384-01]
- Efficacy (%) [1]: -42%
- Curve Class [2]: -2.2
- IC50 [1]: 44.7 µM

SMILES: COc1cc(N2CCC(N3CCN(C)CC3)CC2)ccc1Nc1ncc(Cl)c(Nc2ccccc2S(=O)(=O)C(C)C)n1 [NCGC00238453-07]
- Efficacy (%) [3]: -24%
- Curve Class [3]: -2.4
- IC50 [3]: 56.2 µM

SMILES: O=C(Nc1ccc(Cl)c(Cl)c1)Nc1nnc(N2CCNCC2)s1.O=C(O)C(F)(F)F [NCGC00238616-01]
- Efficacy (%) [1]: -35%
- Curve Class [2]: -2.4
- IC50 [1]: 79.4 µM

SMILES: Cc1ccc(C)c(SC2=NS(=O)(=O)c3cc(C(=O)Nc4ccc5ncccc5c4)ccc32)c1 [NCGC00238689-01]
- Efficacy (%) [1]: -27%
- Curve Class [1]: -2.4
- IC50 [1]: 44.7 µM

SMILES: Cc1ccc(OCCn2c3c(c4ccccc42)CN(C(=O)C2CCCCC2)CC3)cc1.O=C(O)C(F)(F)F [NCGC00238717-01]
- Efficacy (%) [1]: -46%
- Curve Class [2]: -2.4
- IC50 [1]: 56.2 µM

SMILES: O=C(O)C(F)(F)F.O=C(O)c1ccc(O)c2ncc(N3CCN(Cc4ccccc4)CC3)cc12 [NCGC00241045-04]
- Efficacy (%) [1]: -24%
- Curve Class [2]: -2.4
- IC50 [1]: 56.2 µM

SMILES: CC(=O)Nc1sc2c(c1-c1nc3ccccc3s1)CCN(C1COC1)C2.O=C(O)C(F)(F)F [NCGC00241066-01]
- Efficacy (%) [1]: -83%
- Curve Class [2]: -1.2
- IC50 [1]: 14.1 µM

SMILES: Cc1ccnc(NC(=S)N2CCc3ccccc3C2)c1.O=C(O)C(F)(F)F [NCGC00241083-01]
- Efficacy (%) [1]: -23%
- Curve Class [2]: -2.4
- IC50 [1]: 79.4 µM

SMILES: Cc1ccnc(N(C)C(=S)N2CCN(c3cccc(C(F)(F)F)c3)CC2)c1.O=C(O)C(F)(F)F [NCGC00241084-01]
- Efficacy (%) [1]: -24%
- Curve Class [1]: -2.4
- IC50 [1]: 50.1 µM

SMILES: Cc1ccc(-n2nc(C(C)(C)C)cc2NC(=O)Nc2ccc(OCCN3CCOCC3)c3ccccc23)cc1 [NCGC00241104-02]
- Efficacy (%) [1]: -32%
- Curve Class [2]: -2.4
- IC50 [1]: 44.7 µM

SMILES: Cc1ccnc(NC(=S)N2CC[C@@H](Nc3cccc(C(F)(F)F)c3)C2)c1 [NCGC00241356-01]
- Efficacy (%) [1]: -31%
- Curve Class [2]: -2.4
- IC50 [1]: 79.4 µM

SMILES: Cc1ccn2c(Nc3ccc4c(c3)OCO4)c(-c3ccccn3)nc2c1.O=C(O)C(F)(F)F [NCGC00241360-01]
- Efficacy (%) [1]: -51%
- Curve Class [2]: -2.4
- IC50 [1]: 56.2 µM

SMILES: Cc1cc2c(cc1C1(c3ccc(C(=O)O)cc3)CC1)C(C)(C)CCC2(C)C [NCGC00241454-01]
- Efficacy (%) [1]: -27%
- Curve Class [2]: -2.4
- IC50 [1]: 79.4 µM

SMILES: COc1ccc(CNC(=O)c2ccc3c(c2)NC(=O)c2ccccc2S3)cc1 [NCGC00241665-01]
- Efficacy (%) [1]: -27%
- Curve Class [1]: -2.4
- IC50 [1]: 56.2 µM

SMILES: CC(=O)O.Cc1ccc(OCCn2c(CCNC(=O)c3ccc(N)cc3)nc3ccccc32)cc1 [NCGC00241723-01]
- Efficacy (%) [1]: -31%
- Curve Class [1]: -1.4
- IC50 [1]: 44.7 µM

SMILES: Cc1ccnc(NC(=S)N2CCN(c3cccc(C(F)(F)F)c3)CC2)n1.O=C(O)C(F)(F)F [NCGC00242308-01]
- Efficacy (%) [1]: -41%
- Curve Class [2]: -2.2
- IC50 [1]: 79.4 µM

SMILES: Cc1ccc(NS(=O)(=O)c2cc(Br)cc3c2NC(=O)CC3)cc1Cl.O=C(O)C(F)(F)F [NCGC00242331-01]
- Efficacy (%) [1]: -33%
- Curve Class [1]: -2.2
- IC50 [1]: 50.1 µM

SMILES: N#C[C@@H]1C[C@@H]2C[C@@H]2N1C(=O)[C@@H](N)C12CC3CC(CC(O)(C3)C1)C2 [NCGC00242597-01]
- Efficacy (%) [1]: -49%
- Curve Class [2]: -2.2
- IC50 [1]: 44.7 µM

SMILES: O=C(O)C(F)(F)F.O=C1CCCC2=C1C(c1n[nH]cc1Cl)NC(Nc1nc3ccccc3o1)=N2 (centres unmarked) [NCGC00242659-02]
- Efficacy (%) [1]: -31%
- Curve Class [2]: -2.4
- IC50 [1]: 31.6 µM

SMILES: Cc1cc(C)nc(NC(=S)N2CCN(c3cc4ccccc4cn3)CC2)c1.O=C(O)C(F)(F)F [NCGC00244142-01]
- Efficacy (%) [1]: -31%
- Curve Class [2]: -2.4
- IC50 [1]: 79.4 µM

SMILES: Cc1cc(C)nc(NC(=S)N2CCN(c3cccc4ccncc34)CC2)c1.O=C(O)C(F)(F)F [NCGC00244146-01]
- Efficacy (%) [1]: -30%
- Curve Class [1]: -2.4
- IC50 [1]: 79.4 µM

SMILES: Cc1cc(C)nc(NC(=S)N2CCN(c3ccc4nonc4c3)CC2)c1.O=C(O)C(F)(F)F [NCGC00244156-01]
- Efficacy (%) [1]: -25%
- Curve Class [2]: -2.4
- IC50 [1]: 50.1 µM

SMILES: CN(C)CCc1c[nH]c2ccc(O)cc12 [NCGC00247724-01]
- Efficacy (%) [1]: -23%
- Curve Class [1]: -2.4
- IC50 [1]: 112 µM

SMILES: CCOC(=O)c1nnc(NS(=O)(=O)c2ccc(NC(=O)Cc3ccc(Cl)c(Cl)c3)cc2)s1.O=C(O)C(F)(F)F [NCGC00248354-02]
- Efficacy (%) [1]: -28%
- IC50 [1]: 31.4 µM

SMILES: Cc1c2c(=O)n(-c3ccccc3)[nH]c2cc(=O)n1Cc1ccco1.O=C(O)C(F)(F)F [NCGC00248469-01]
- Efficacy (%) [1]: -43%
- Curve Class [2]: -2.4
- IC50 [1]: 56.2 µM

SMILES: Cc1c2c(=O)n(-c3ccccc3)[nH]c2cc(=O)n1CCc1ccccc1.O=C(O)C(F)(F)F [NCGC00248471-01]
- Efficacy (%) [1]: -28%
- Curve Class [2]: -2.4
- IC50 [1]: 50.1 µM

SMILES: Cc1c2c(=O)n(-c3ccccc3)[nH]c2cc(=O)n1Cc1ccncc1.O=C(O)C(F)(F)F [NCGC00248478-01]
- Efficacy (%) [1]: -31%
- Curve Class [2]: -2.4
- IC50 [1]: 50.1 µM

SMILES: O=C(Nc1ccc(S(=O)(=O)N2CCOCC2)cc1)c1cc(Cl)ccc1NS(=O)(=O)c1ccc(Cl)s1 [NCGC00249417-02]
- Efficacy (%) (qHTS FP screen hits, Table S2): -34%
- IC50 (qHTS FP screen hits, Table S2): 40.9 µM

SMILES: CCCc1c(O)c(O)c(C(=O)O)c2cc(Cc3ccccc3)c(C)cc12 [NCGC00249596-02]
- Efficacy (%) [1]: -48%
- Curve Class [2]: -2.2
- IC50 [1]: 44.7 µM
